Reference: ChEMBL document CHEMBL5653615 (J Biol Chem, 2013)

Legend:
[1] = molecular target: T1, Inhibitor of nuclear factor kappa-B kinase subunit beta (Homo sapiens) (UniProt O14920); assay: Inhibition of human IKKb at 500 nM by HotSpot assay relative to control
T1 sequence (whole entry): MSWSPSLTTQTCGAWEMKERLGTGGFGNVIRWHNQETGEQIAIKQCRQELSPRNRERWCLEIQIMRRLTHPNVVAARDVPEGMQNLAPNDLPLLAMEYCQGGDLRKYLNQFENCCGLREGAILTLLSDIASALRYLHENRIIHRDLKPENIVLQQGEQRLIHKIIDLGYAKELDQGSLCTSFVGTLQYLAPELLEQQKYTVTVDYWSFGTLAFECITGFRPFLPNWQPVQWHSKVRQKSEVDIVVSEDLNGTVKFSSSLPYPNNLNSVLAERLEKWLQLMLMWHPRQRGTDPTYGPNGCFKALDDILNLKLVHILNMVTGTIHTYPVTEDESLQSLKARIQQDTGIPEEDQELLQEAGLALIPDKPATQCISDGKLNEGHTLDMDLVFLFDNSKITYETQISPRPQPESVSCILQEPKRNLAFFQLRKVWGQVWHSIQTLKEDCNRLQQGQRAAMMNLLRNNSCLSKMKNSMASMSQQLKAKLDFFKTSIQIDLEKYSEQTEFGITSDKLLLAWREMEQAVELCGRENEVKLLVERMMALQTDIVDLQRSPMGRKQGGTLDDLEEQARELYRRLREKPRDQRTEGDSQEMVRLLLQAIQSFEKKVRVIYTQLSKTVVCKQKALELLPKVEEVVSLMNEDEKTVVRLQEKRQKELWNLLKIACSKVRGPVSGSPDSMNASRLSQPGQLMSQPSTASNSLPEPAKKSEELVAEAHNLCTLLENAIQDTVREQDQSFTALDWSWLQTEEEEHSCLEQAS

[2] = molecular target: Receptor tyrosine-protein kinase erbB-4 (Homo sapiens) (UniProt Q15303); assay: Inhibition of human ERBB4 at 18.6 nM by HotSpot assay relative to control
Sequence of Receptor tyrosine-protein kinase erbB-4 (Homo sapiens) (Q15303 whole entry): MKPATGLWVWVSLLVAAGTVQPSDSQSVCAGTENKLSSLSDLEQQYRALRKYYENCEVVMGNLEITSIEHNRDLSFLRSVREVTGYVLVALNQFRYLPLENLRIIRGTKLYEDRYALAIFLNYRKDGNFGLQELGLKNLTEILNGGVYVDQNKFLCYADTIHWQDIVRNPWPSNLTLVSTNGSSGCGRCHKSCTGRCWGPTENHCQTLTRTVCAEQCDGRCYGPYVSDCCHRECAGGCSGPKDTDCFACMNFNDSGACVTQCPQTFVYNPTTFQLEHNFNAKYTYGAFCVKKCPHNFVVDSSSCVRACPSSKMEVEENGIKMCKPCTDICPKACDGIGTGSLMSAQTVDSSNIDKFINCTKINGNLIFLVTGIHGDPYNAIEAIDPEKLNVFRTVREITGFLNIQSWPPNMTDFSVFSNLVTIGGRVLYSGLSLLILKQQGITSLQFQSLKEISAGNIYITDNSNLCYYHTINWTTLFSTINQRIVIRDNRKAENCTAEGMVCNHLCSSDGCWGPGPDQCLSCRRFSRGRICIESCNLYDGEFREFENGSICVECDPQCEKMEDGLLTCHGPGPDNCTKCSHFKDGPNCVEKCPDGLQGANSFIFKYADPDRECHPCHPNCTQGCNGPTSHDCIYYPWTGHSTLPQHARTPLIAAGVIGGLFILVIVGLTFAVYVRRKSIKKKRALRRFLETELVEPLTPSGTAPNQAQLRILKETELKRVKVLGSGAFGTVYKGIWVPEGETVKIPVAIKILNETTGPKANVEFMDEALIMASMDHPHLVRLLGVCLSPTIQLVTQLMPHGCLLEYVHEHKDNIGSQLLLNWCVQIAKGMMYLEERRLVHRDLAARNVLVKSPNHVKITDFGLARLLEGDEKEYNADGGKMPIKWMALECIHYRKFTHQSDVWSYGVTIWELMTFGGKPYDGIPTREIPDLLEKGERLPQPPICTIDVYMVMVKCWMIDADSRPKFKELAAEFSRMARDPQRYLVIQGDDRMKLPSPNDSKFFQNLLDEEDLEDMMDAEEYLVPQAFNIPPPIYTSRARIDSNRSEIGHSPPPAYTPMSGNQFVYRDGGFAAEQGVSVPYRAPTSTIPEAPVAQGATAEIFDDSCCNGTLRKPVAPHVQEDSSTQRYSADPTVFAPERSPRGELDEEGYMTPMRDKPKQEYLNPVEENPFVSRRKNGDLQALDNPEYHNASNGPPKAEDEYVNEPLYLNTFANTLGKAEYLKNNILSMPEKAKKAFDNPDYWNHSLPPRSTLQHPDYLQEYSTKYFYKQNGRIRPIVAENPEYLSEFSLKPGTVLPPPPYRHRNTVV

[3] = molecular target: Ephrin type-A receptor 7 (Homo sapiens) (UniProt Q15375); assay: Inhibition of human EPHA7 at 18.6 nM by HotSpot assay relative to control
[4] = molecular target: PAS domain-containing serine/threonine-protein kinase (Homo sapiens) (UniProt Q96RG2); assay: Inhibition of human PASK at 18.6 nM by HotSpot assay relative to control
Sequence of PAS domain-containing serine/threonine-protein kinase (Homo sapiens) (Q96RG2 whole entry, the tested form may be a part): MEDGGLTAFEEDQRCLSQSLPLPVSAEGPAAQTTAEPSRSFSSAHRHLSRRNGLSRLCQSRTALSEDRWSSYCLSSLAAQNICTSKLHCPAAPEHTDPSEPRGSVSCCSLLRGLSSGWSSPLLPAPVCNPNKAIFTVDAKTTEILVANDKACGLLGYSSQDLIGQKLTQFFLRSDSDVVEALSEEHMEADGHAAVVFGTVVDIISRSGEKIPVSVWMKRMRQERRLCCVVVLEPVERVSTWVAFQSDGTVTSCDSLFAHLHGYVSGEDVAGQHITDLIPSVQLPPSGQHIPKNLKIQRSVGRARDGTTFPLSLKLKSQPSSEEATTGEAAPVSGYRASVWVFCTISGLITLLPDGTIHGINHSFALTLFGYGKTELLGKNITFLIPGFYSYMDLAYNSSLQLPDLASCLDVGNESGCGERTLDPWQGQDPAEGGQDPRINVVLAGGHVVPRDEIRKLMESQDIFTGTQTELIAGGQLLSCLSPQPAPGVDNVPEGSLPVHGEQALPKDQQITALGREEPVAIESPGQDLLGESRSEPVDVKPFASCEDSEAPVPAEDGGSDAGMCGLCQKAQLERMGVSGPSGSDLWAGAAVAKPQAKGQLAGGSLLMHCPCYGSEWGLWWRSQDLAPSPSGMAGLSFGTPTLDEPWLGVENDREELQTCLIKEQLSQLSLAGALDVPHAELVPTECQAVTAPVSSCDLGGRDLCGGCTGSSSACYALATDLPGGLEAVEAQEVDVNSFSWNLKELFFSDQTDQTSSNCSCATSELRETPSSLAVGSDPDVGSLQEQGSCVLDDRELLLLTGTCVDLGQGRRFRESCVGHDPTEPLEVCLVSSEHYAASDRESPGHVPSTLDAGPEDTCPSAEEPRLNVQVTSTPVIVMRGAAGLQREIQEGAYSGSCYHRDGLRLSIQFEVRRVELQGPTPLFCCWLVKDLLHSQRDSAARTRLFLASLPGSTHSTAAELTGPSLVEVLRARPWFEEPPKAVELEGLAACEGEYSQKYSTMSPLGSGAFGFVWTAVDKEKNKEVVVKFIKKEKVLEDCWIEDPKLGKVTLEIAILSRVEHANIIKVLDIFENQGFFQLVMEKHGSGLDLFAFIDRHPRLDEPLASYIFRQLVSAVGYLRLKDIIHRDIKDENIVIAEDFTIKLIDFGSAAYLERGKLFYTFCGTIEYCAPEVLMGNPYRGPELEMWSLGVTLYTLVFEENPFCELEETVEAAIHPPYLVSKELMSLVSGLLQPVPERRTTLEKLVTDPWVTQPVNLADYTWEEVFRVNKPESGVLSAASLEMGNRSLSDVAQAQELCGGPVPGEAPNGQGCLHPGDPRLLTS

[5] = molecular target: Calcium/calmodulin-dependent protein kinase type 1D (Homo sapiens) (UniProt Q8IU85); assay: Inhibition of human CAMK1d at 18.6 nM by HotSpot assay relative to control
[6] = molecular target: Tyrosine-protein kinase Lyn (Homo sapiens) (UniProt P07948); assay: Inhibition of human LYN B at 18.6 nM by HotSpot assay relative to control
[7] = molecular target: Mitogen-activated protein kinase 11 (Homo sapiens) (UniProt Q15759); assay: Inhibition of human MAPK11 at 1.82 nM by HotSpot assay relative to control
[8] = molecular target: T2, Serine/threonine-protein kinase D2 (Homo sapiens) (UniProt Q9BZL6); assay: Inhibition of human PRKD2 at 1.82 nM by HotSpot assay relative to control
T2 sequence (whole entry): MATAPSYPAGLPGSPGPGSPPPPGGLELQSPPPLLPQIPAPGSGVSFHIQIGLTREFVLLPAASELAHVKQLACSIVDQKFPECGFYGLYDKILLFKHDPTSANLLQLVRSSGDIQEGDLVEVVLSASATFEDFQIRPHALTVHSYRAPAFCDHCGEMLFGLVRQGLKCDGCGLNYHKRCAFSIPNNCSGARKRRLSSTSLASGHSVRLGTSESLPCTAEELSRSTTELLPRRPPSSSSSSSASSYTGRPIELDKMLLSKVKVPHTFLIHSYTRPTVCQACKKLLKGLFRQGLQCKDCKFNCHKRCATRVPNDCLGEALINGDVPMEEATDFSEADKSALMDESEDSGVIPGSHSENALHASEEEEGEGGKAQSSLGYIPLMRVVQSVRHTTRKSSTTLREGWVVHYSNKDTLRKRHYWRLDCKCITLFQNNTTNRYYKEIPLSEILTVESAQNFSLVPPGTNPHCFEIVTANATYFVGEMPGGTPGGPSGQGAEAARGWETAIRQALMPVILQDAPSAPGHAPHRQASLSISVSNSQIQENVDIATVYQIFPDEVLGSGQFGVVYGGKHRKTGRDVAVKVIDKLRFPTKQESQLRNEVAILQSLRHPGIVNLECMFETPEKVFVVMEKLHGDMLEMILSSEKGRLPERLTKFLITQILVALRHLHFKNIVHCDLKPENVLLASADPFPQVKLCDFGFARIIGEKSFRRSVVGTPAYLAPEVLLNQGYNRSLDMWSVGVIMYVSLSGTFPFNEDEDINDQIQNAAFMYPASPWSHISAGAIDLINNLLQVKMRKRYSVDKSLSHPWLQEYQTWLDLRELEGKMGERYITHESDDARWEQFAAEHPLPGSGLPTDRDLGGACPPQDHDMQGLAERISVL

[9] = molecular target: T3, Interleukin-1 receptor-associated kinase 4 (Homo sapiens) (UniProt Q9NWZ3); assay: Inhibition of human IRAK4 at 1.82 nM by HotSpot assay relative to control
T3 sequence (whole entry): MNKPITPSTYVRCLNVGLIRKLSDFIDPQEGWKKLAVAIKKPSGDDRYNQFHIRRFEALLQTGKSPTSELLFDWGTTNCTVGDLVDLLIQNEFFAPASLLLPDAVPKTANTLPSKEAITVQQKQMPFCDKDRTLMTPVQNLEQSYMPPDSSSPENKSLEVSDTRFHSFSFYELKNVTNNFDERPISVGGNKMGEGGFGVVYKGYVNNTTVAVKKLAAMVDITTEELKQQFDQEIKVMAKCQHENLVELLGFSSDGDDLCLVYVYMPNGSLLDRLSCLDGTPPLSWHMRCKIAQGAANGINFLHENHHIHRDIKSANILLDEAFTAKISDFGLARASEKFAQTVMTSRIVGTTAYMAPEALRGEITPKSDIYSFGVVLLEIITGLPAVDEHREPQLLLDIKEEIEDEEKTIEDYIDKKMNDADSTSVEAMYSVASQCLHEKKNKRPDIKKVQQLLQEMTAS

[10] = molecular target: Serine/threonine-protein kinase MRCK beta (Homo sapiens) (UniProt Q9Y5S2); assay: Inhibition of human CDC42BPB at 1.82 nM by HotSpot assay relative to control
Sequence of Serine/threonine-protein kinase MRCK beta (Homo sapiens) (Q9Y5S2 whole entry): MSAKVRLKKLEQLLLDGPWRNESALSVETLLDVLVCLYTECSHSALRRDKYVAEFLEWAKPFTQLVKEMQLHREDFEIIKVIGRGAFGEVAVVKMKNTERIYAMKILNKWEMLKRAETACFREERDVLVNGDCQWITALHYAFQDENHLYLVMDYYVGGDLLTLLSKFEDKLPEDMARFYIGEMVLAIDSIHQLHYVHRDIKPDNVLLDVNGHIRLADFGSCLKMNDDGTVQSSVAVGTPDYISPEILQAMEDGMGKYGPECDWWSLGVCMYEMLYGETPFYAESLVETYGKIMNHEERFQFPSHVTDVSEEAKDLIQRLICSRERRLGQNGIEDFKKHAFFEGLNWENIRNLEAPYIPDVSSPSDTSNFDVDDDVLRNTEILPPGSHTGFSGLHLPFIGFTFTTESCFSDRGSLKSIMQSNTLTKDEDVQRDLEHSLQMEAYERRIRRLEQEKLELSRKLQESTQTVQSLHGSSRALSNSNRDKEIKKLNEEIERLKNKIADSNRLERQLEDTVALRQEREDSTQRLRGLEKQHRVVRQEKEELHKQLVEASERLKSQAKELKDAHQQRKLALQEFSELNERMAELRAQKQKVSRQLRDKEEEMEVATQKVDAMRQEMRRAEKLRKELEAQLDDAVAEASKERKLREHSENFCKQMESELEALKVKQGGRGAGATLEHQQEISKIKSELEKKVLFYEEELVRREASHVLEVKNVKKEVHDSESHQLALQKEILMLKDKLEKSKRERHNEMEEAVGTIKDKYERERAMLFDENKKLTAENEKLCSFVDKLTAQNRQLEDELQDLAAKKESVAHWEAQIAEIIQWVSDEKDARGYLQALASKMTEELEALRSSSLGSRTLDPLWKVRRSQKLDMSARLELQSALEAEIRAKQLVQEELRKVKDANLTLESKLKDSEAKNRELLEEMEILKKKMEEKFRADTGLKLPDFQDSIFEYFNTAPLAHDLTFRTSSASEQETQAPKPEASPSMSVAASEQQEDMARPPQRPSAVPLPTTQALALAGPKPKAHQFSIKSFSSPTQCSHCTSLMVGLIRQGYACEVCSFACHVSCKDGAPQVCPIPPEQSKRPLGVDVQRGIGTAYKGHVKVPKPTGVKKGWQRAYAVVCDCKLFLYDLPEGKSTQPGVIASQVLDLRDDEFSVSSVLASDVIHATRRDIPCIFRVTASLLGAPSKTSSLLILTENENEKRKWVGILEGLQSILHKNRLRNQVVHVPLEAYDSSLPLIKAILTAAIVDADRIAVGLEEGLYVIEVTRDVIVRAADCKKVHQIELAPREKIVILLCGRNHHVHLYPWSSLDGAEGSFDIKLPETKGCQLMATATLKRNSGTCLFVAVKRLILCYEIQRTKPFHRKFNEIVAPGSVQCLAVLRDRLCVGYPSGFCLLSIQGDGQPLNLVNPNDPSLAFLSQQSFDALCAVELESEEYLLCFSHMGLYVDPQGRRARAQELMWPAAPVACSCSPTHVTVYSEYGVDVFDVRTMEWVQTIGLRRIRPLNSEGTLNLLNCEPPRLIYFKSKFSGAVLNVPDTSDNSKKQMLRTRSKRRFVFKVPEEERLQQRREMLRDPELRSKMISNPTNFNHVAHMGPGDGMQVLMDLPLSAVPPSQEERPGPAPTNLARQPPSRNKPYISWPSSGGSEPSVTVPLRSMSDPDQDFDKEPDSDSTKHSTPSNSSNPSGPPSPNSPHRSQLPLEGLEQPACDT

[11] = molecular target: Mitogen-activated protein kinase kinase kinase 8 (Homo sapiens) (UniProt P41279); assay: Inhibition of human COT1 at 1.82 nM by HotSpot assay relative to control
Sequence of Mitogen-activated protein kinase kinase kinase 8 (Homo sapiens) (P41279 whole entry): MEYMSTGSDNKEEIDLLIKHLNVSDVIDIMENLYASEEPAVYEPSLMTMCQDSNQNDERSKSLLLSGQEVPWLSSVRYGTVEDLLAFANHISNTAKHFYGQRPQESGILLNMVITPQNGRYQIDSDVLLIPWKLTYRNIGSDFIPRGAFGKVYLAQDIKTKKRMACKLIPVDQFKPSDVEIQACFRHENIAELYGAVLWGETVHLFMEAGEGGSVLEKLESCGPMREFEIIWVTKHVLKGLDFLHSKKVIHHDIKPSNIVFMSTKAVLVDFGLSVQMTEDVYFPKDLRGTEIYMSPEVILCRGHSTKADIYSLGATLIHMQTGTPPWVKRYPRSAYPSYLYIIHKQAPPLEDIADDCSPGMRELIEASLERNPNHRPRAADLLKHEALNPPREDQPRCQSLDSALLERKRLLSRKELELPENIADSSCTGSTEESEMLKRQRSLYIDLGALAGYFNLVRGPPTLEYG

[12] = molecular target: Protein kinase C beta type (Homo sapiens) (UniProt P05771); assay: Inhibition of human PKCb2 at 1.82 nM by HotSpot assay relative to control
[13] = molecular target: Mitogen-activated protein kinase 3 (Homo sapiens) (UniProt P27361); assay: Inhibition of human ERK1 at 1.82 nM by HotSpot assay relative to control

Oc1n[nH]c2nnc(-c3c(-c4ccccc4)nn4ccccc34)cc12
inhibition [1]: -0.37%

C[C@]1(O)C[C@@H](c2nc(-c3ccc4ccc(-c5ccccc5)nc4c3)c3c(N)nccn32)C1
inhibition [2]: 2.92%
inhibition [3]: 2.17%
inhibition [4]: -4.72%
inhibition [5]: -0.1%
inhibition [6]: 4.09%

C[C@@]1(C(=O)Nc2ccc(F)nc2)CCCN1c1nc(Nc2cc(C3CC3)n[nH]2)c2cccn2n1
inhibition [7]: -1.71%
inhibition [8]: 2.22%
inhibition [9]: -4.67%
inhibition [10]: -4.49%
inhibition [11]: 10.7%
inhibition [12]: -3.58%
inhibition [13]: -2.81%
